Data: patent US20090298938A1, “USE OF SEMI SYNTHETIC ANALOGUES OF BOSWELLIC ACIDS FOR ANTICANCER ACTIVITY” (COUNCIL OF SCIENTIFIC & INDUSTRIAL RESEARCH, priority 2008, published 2009)

Key:
Format in all cases: cell-based, human
Details in all cases: 48 hr
[1] = tested on: PC-3 cells; experiment: In vitro cytotoxicity, SRB assay, PC-3
Experimental: (§1) The semi-synthetic analogues of formula 1 have been subjected to in vitro cytotoxicity screening in a panel of human cancer cell lines using following methodology. The human cancer cell lines were obtained either from National Center for Cell Science, Pune or National Cancer Institute, Fredrick, Md., USA. Cells were grown in tissue culture flasks in complete growth medium (RPMI-1640 medium with 2 mM glutamine, 100 µg/ml streptomycin, pH 7.4, sterilized by filtration and supplemented with 10% sterilized fetal calf serum and 100 units/ml penicillin before use) at 37° C. in an atmosphere of 5% CO2 and 90% relative humidity in a carbon dioxide incubator. The cells at sub-confluent stage were harvested from flask by treatment with trypsin (0.05% trypsin in PBS containing 0.02% EDTA) and suspended in complete growth medium. Cells with cell viability of more than 97% by trypan blue exclusion technique were used for determination of cytotoxicity.
(§2) Test material were dissolved in DMSO (dimethyl sulphoxide) to obtain a stock solution of 2×10^−2M. The stock solution was serially diluted with complete growth medium containing 50 μg/ml of gentamycin to obtain working test solutions of required concentrations.
(§3) The suspension of human cancer cell lines of required cell density in complete growth medium was prepared and cell suspension (100 μl/well) of each cell line was added to wells of 96-well tissue culture plate. Suitable blanks and controls were also included. The plates were incubated for 24 hrs in a carbon dioxide incubator.
(§4) The working test solutions of different concentrations (100 μl/well) were added after 24 hr incubation. The plates were further incubated for 48-hrs after addition of the test materials. After incubation, the cell growth was stopped by gently layering of 50 μl of TCA (50% trichloroacetic acid) on top of the medium in all the wells. The plates were incubated at 4° C. for one hour to fix the cells attached to bottom of the wells. Liquids of all the wells were gently pipetted out and discarded. The plates were washed five times with distilled water to remove TCA, growth medium, low molecular weight metabolites, serum proteins etc. The plates were air dried.
(§5) Cell growth was measured by staining with sulforhodamine B dye (SRB). The SRB solution (100 μl, 0.4% in 1% acetic acid) was added to each well and the plates were incubated at room temperature for 30 minutes. The unbound SRB was quickly removed by washing the wells five times with 1% acetic acid solution and plates were air dried. Tris buffer (100 μl, 0.01 M, pH 10.4) was added to all the wells and plates were gently stirred for 5 minutes on a mechanical stirrer. The optical density was recorded on ELISA reader at 540 nm.
(§6) Cell growth in the presence of test material was calculated in terms of the percentage of growth inhibition. The in vitro cytotoxicity of four natural boswellic acid i.e. boswellic acid, acetyl boswellic acid, 11-keto-boswellic acids, acetyl-11-ketio-boswellic acid on various cancer cell lines has been examined and typical results are given in the succeeding table. Based on their cytotoxicity profile the analogues of formula 1 were studied for inhibition of cell proliferation by using MTT assay method. […] The induction of apoptosis in HL-60 cells was also validated by generation of DNA fragmentation.
(§7) Assay of cytotoxicity potential of test materials is a primary standard procedure for seeking lead molecules for development of anti-cancer leads. Human cancer cells after trypsinization into single cell suspension were grown in 96-well culture plate for 24 hr. Cells were treated with indicated doses of test analogues and incubated in CO2 incubator for 48 hr. Thereafter, cells were stained with sulforhodamine B dye, and the bound dye was eluted to measure the optical density indicating cell growth in Elisa Reader at 540 nm [Monks et al., 1991]. […]

[2] = tested on: Colo-205 colon cancer cells; experiment: In vitro cytotoxicity, SRB assay, Colo-205
Experimental: as §1, §2, §3, §4, §5, §6, §7

[3] = tested on: HT-29 colon cancer cells; experiment: In vitro cytotoxicity, SRB assay, HT-29
Experimental: as §1, §2, §3, §4, §5, §6, §7

[4] = tested on: SW-620 colon cancer cells; experiment: In vitro cytotoxicity, SRB assay, SW-620
Experimental: as §1, §2, §3, §4, §5, §6, §7

[5] = tested on: Hep-2 cells; experiment: In vitro cytotoxicity, SRB assay, Hep-2
Experimental: as §1, §2, §3, §4, §5, §6, §7

[6] = Conc. 5 × 10^5 (r27-r29: 5 × 10^−5), Table 1
[7] = Conc. 5 × 10^−5, natural boswellic acids

Compound	Growth inhibition % PC-3 [1, 6]	Growth inhibition % Colo-205 Colon [2, 6]	Growth inhibition % HT-29 Colon [3, 6]	Growth inhibition % SW-620 Colon [4, 6]	Growth inhibition % Hep-2 [5, 6]	Growth inhibition % PC-3 [1, 7]	Growth inhibition % Colo-205 Colon [2, 7]	Growth inhibition % HT-29 Colon [3, 7]	Growth inhibition % SW-620 Colon [4, 7]	Growth inhibition % Hep-2 [5, 7]
CCCC(=O)OC1CCC2(C)C(CCC3(C)C2CC=C2C4C(C)C(C)CCC4(C)CCC23C)C1(C)C(=O)O (stereo not shown) [1,R3O = COCH2CH2CH3, R1 = H, R4 = R5 = H]	80%	71%	54%	83%	65%	–	–	–	–	–
CC(=O)OC1CCC2(C)C(CCC3(C)C2C(=O)C=C2C4C(C)C(C)CCC4(C)CCC23C)C1(C)C(=O)O (stereo not shown) [1, R3O = COCH3, R1 = H, R4 + R5 = O]	60%	56%	45%	48%	50%	–	–	–	–	–
CC1CCC2(C)CCC3(C)C(=CC(=O)C4C5(C)CCC(OC(=O)CCC(=O)O)C(C)(C(=O)O)C5CCC43C)C2C1C (stereo not shown) [1,R3O = —COCH2CH2COOH R1 = H, R4 + R5 = O]	60%	29%	16%	2%	17%	–	–	–	–	–
C[C@H]1[C@H](C)CC[C@]2(C)CC[C@]3(C)C(=CC[C@@H]4[C@@]5(C)CC[C@@H](O)[C@](C)(C(=O)O)[C@@H]5CC[C@]43C)[C@H]12 [Boswellic acid]	–	–	–	–	–	100%	86%	69%	61%	45%
CC1CCC2(C)CCC3(C)C(=CC(=O)C4C5(C)CCC(OC(=O)CCC(=O)O)C(C)(C(=O)O)C5CCC43C)C2C1C (stereo not shown) [1,R3O = —COCH2CH2COOH, R1 = H, R4 + R5= O]	38%	1%	3%	0%	7%	–	–	–	–	–
CC(=O)O[C@@H]1CC[C@@]2(C)[C@@H](CC[C@]3(C)[C@@H]2C(=O)C=C2[C@@H]4[C@@H](C)[C@H](C)CC[C@]4(C)CC[C@]23C)[C@@]1(C)C(=O)O [Acetyl-11-keto-boswellic acid, reference compound]	–	–	–	–	–	79%	89%	91%	91%	62%
CCCC(=O)OC1CCC2(C)C(CCC3(C)C2C(=O)C=C2C4C(C)C(C)CCC4(C)CCC23C)C1(C)C(=O)O (stereo not shown)	–	94%	–	–	–	–	–	–	–	–
CCC(=O)OC1CCC2(C)C(CCC3(C)C2C(=O)C=C2C4C(C)C(C)CCC4(C)CCC23C)C1(C)C(=O)O (stereo not shown) [1, R3O = COCH2CH3, R1 = H, R4 + R5 = O]	61%	92%	92%	90%	72%	–	–	–	–	–
CC1CCC2(C)CCC3(C)C(=CCC4C5(C)CCC(O)C(C)(C(=O)O)C5CCC43C)C2C1C (stereo not shown) [1, R3 = H, R1 = H, R4 = R5 = H]	69%	85%	73%	65%	66%	–	–	–	–	–
CC1CCC2(C)CCC3(C)C(=CC(=O)C4C5(C)CCC(O)C(C)(C(=O)O)C5CCC43C)C2C1C (stereo not shown) [1, R = H, R1 = H, X = O]	68%	52%	46%	49%	53%	–	–	–	–	–
